Results taken from BigSolDB 2.1.

O=c1[nH]cc(F)c(=O)[nH]1
Settings	solubility (mole fraction)
in 1,4-dioxane, 290.2 K	0.00112
in 1,4-dioxane, 291.3 K	0.00123
in 1,4-dioxane, 300.9 K	0.00158
in 1,4-dioxane, 305.2 K	0.00176
in 1,4-dioxane, 306.4 K	0.00187
in 1,4-dioxane, 310.4 K	0.00205
in 1,4-dioxane, 313.3 K	0.00218
in 1,4-dioxane, 313.9 K	0.00225
in 1,4-dioxane, 318 K	0.00247
in 1,4-dioxane, 319.5 K	0.00258
in 1,4-dioxane, 322.8 K	0.00284
in 1,4-dioxane, 329.8 K	0.00332
in THF, 279.6 K	0.00246
in THF, 287 K	0.00273
in THF, 293.2 K	0.00289
in THF, 303.8 K	0.00328
in THF, 308.7 K	0.00349
in THF, 314.6 K	0.00367
in THF, 325.2 K	0.00418
in THF, 328.6 K	0.00454
in acetone, 282.9 K	0.00152
in acetone, 290.2 K	0.00175
in acetone, 298.4 K	0.00199
in acetone, 302.5 K	0.00219
in acetone, 305.1 K	0.00229
in acetone, 307.4 K	0.00244
in acetone, 315.2 K	0.0028
in acetone, 316.9 K	0.00299
in acetone, 322.4 K	0.00304
in acetonitrile, 290.3 K	0.00046
in acetonitrile, 294.6 K	0.00053
in acetonitrile, 299.1 K	0.00062
in acetonitrile, 300.3 K	0.00066
in acetonitrile, 306.6 K	0.00081
in acetonitrile, 307.6 K	0.00083
in acetonitrile, 316 K	0.00102
in acetonitrile, 320.2 K	0.00121
in acetonitrile, 329 K	0.00143
in acetonitrile, 332.3 K	0.00162
in ethanol, 281.1 K	0.00099
in ethanol, 286.9 K	0.00124
in ethanol, 291.2 K	0.00137
in ethanol, 297.7 K	0.00167
in ethanol, 306.2 K	0.00206
in ethanol, 309.1 K	0.00216
in ethanol, 314.8 K	0.0026
in ethanol, 315.1 K	0.00267
in ethanol, 322.8 K	0.0032
in ethanol, 323.7 K	0.00329
in ethanol, 325.6 K	0.00366
in ethanol, 329.9 K	0.00399
in ethyl acetate, 291.1 K	0.00041
in ethyl acetate, 297 K	0.00048
in ethyl acetate, 300.6 K	0.00054
in ethyl acetate, 310.8 K	0.00063
in ethyl acetate, 320.3 K	0.00077
in ethyl acetate, 330.6 K	0.00099
in isopropanol, 282.1 K	0.00085
in isopropanol, 284.6 K	0.00089
in isopropanol, 286.8 K	0.00102
in isopropanol, 294.9 K	0.00119
in isopropanol, 301.3 K	0.00147
in isopropanol, 302.4 K	0.00163
in isopropanol, 308 K	0.00188
in isopropanol, 311.6 K	0.00217
in isopropanol, 316.2 K	0.00237
in isopropanol, 318 K	0.00258
in isopropanol, 323 K	0.00301
in isopropanol, 327.5 K	0.00346
in isopropanol, 330 K	0.00381
in methanol, 280 K	0.00165
in methanol, 287.7 K	0.00216
in methanol, 295.8 K	0.00289
in methanol, 306.8 K	0.00379
in methanol, 318.4 K	0.00502
in methanol, 326 K	0.00581
in methanol, 328.8 K	0.00661
in n-butanol, 280.1 K	0.00058
in n-butanol, 283 K	0.00059
in n-butanol, 287.8 K	0.00086
in n-butanol, 299.5 K	0.00103
in n-butanol, 303.4 K	0.00121
in n-butanol, 306.3 K	0.00141
in n-butanol, 314.8 K	0.00182
in n-butanol, 325.8 K	0.0026
in n-butanol, 327 K	0.00267
in n-butanol, 331.5 K	0.00313
in n-propanol, 280.8 K	0.00082
in n-propanol, 282.4 K	0.00089
in n-propanol, 291.2 K	0.00098
in n-propanol, 294.5 K	0.00108
in n-propanol, 298.4 K	0.00121
in n-propanol, 302.2 K	0.00123
in n-propanol, 308.6 K	0.00149
in n-propanol, 313 K	0.00172
in n-propanol, 315.1 K	0.00179
in n-propanol, 318.3 K	0.00208
in n-propanol, 322.3 K	0.00224
in n-propanol, 324.3 K	0.00245
in n-propanol, 326.2 K	0.00263
in water, 280.1 K	0.00091
in water, 282.5 K	0.00093
in water, 290.8 K	0.00124
in water, 294.5 K	0.00147
in water, 304.4 K	0.0021
in water, 312.1 K	0.00288
in water, 317.5 K	0.00337
in water, 323 K	0.00402
